Source: patent EP0251126B1, “1,7-substituted heptyne-2-ones” (priority 1986, dated 1988)

Experiments:
[1] = molecular target: postsynaptic muscarinic cholinergic receptors on intestinal (ileal) longitudinal smooth muscle (Cavia porcellus, UniProt Q8VH26); assay type: biochemical, guinea-pigs; conditions: guinea pig ileum longitudinal muscle, carbachol as agonist
Description: The cavity is opened and the small intestine is removed, with about 10 cm of the terminal ileum being discarded. […] The segments are preferentially taken from the aboral end of the ileum.
The preparations are allowed to recover for an additional 12 minutes before being used in experiments.
(§1) Serial dilutions (1:10) in saline or water are made from the stock solution.
(§2) Serial dilutions (1:10) in saline or water are made from the stock solution. […] Serial dilutions (1:10) in water are made from the stock solution. Other solvents may be used when appropriate and will be specifically described in the experimental procedure. Appropriate volumes are then added to the baths in order to obtain the desired bath concentrations.
(§3) With each concentration step, the tissue contracts isometrically. The next concentration is added only after the preceding contraction has reached a steady value.
Three or four different concentrations of antagonist are studied in the same preparations. Responses are expressed relative to the maximum contraction elicited by carbachol in the absence of antagonist.

[2] = molecular target: postsynaptic muscarinic cholinergic receptors on bladder detrusor muscle (Cavia porcellus, UniProt Q8VH26); assay type: biochemical, guinea-pigs; conditions: guinea pig bladder strips, carbachol as agonist
Description: as §1, §2, §3
Three or four different concentrations of antagonist are studied in the same preparations.

[3] = test system: bladder contraction strength (PvesP); assay type: in vivo, Guinea pigs; conditions: T-1/2 of the compound compared with T-1/2 of oxybutynin
Description: To assess test compounds with a more intact model system, a method which more closely mimics the natural slow filling of the bladder is used.
This clinical CMG is produced by catheterizing the bladder so it may be filled, emptied and refilled with fluid while simultaneously measuring the internal bladder pressure (Pves). […] This allows the bladder to reach maximum capacity/pressure before sensory systems initiate the normal urge and micturition reflex patterns. We use a modification of this clinical test to determine duration of action of test compounds by repeated filling of the bladder following i.v. administration of the test compound. Peak pressure above the threshold pressure is the primary measure of action which can be inhibited by the test compounds and can be used to determine potency and duration of action in this anesthetized Guinea pig model. […]
Test drugs and reference compounds are normally prepared as a solution in normal saline, acidified or made basic as needed to get the compound into solution at the desired concentration. Drugs are delivered at selected mg/kg (calculated as free base) doses i.v. in a volume of approximately 0.5 to 0.8 ml. […]

Chain of postsynaptic muscarinic cholinergic receptors on intestinal (ileal) longitudinal smooth muscle (Q8VH26 entry or part of it): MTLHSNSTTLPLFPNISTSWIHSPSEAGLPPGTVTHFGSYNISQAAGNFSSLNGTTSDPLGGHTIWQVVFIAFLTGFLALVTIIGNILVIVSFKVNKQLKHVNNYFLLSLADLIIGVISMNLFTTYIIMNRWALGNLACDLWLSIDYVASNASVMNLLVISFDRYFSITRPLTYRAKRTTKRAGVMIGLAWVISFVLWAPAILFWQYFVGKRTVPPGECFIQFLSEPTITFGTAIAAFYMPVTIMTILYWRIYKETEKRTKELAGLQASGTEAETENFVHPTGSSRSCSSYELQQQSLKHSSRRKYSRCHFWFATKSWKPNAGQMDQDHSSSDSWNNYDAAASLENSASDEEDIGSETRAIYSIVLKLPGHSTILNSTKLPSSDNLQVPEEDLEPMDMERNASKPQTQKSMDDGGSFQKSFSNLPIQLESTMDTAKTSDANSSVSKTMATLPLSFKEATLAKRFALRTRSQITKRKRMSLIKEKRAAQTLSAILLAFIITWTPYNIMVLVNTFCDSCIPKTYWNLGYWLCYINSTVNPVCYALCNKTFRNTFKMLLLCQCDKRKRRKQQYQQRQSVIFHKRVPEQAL
Chain of postsynaptic muscarinic cholinergic receptors on bladder detrusor muscle (Q8VH26 entry or part of it): as above

Compound	Bladder Kb [2]	Ileum Kb [1]	half-lives of PvesP depression relative to oxybutynin [3]	other results
1-(6-Diethylaminohex-4-yn-2-one)-1-hydroxy-1,2,3,4-tetrahydronaphthalene N-cyclohexylsulfamate hydrate [Compound 11]	–	–	–	Kb [1]: > 1000 nM; Kb [2]: 512 nM
CCN(CC)CC#CCCC1(C(O)(c2ccccc2)C2CCCCC2)SCCCS1 (centres unmarked) [Compound 2, 1-Cyclohexyl-1-phenyl-1-hydroxy-7-diethylaminohept-5-yn-2-one bis (1,3-propylene)dithioketal hemioxalate]	enhance	–	–	–
CCN(CC)CC#CCCC(=O)C(C)(O)c1ccccc1.O=C(O)C(=O)O (centres unmarked) [Compound 7, 2-Hydroxy-2-phenyl-8-(N,N-diethylamino)oct-6-yn-3-one oxalate]	–	NC 10µM	–	–
CCNCC#CCCC(=O)C(O)(c1ccccc1)C1CCCCC1 (centres unmarked) [Compound 10, 1-Cyclohexyl-1-hydroxy-phenyl-7-ethylamino-hept-5-yn-2-one hemifumarate, hydrate]	–	–	1.78 times longer	–
CN(C)CC#CCCC(=O)C(O)(c1ccccc1)C1CCCCC1 (centres unmarked) [Compound 18, 1-Cyclohexyl-1-hydroxy-1-phenyl-7-dimethylaminohept-5-yn-2-one]	–	–	2.65 times longer	–
CCN(CC)CC#CCC(=O)CC1(O)CCc2ccccc21.CCN(CC)CC#CCC(=O)CC1(O)CCc2ccccc21.O.O=C(O)C(=O)O.O=C(O)C(=O)O (centres unmarked) [Compound 21, 1-(6-N,N-Diethylaminohex-4-yn-2-one)-1-hydroxyindan oxalate semihydrate]	N.E.	N.E.	–	–
